# Source: patent publication USRE39591E1, “6-O-substituted ketolides having antibacterial activity” (Abbott Laboratories, priority 1996, dated 2007)
# Test system: up to 32 different microorganisms
# Assay: in vitro antibacterial activity (MIC), agar dilution on Brain Heart Infusion (BHI) agar with Steers replicator
# Format: cell-based
# Conditions: unit assumed
# Method in brief: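 MIC read visually: lowest drug level with no growth, slight haze or sparsely isolated colonies on the inoculum spot relative to drug-free control. Serial aqueous compound dilutions in BHI agar, 1:100 inoculum (1:10 slow strains), 20 to 24 hours at 35°-37° C.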
smiles,measurement,setting,value
"C=CCOC1(C)CC(C)C(=NO)C(C)C(O)C(C)(O)C(CC)OC(=O)C(C)C(=O)C(C)C1OC1OC(C)CC(N(C)C)C1O (stereo not drawn) [Example 2, Compound of Formula (VIII): X is NOH, R is allyl]",MIC,Candida albicans CCH 442 (code TT),> 100 µg/mL
same,MIC,Enterococcus faecism ATCC 8043 (code II),6.2 µg/mL
same,MIC,Escherichia coli DC-2 (code SS),> 100 µg/mL
same,MIC,Escherichia coli JUHL (code QQ),> 100 µg/mL
same,MIC,Escherichia coli SS (code RR),3.1 µg/mL
same,MIC,Micrococcus luteus ATCC 4698 (code PP),3.1 µg/mL
same,MIC,Micrococcus luteus ATCC 9341 (code OO),1.56 µg/mL
same,MIC,Mycobacterium smegmatis ATCC 114 (code UU),25 µg/mL
same,MIC,Nocardia Asteroides ATCC9970 (code VV),0.2 µg/mL
same,MIC,Staphylococcus aureus 1775 (code GG),> 100 µg/mL
same,MIC,Staphylococcus aureus A5177 (code BB),3.1 µg/mL
same,MIC,Staphylococcus aureus A-5278 (code CC),> 100 µg/mL
same,MIC,Staphylococcus aureus ATCC 6538P (code AA),3.1 µg/mL
same,MIC,Staphylococcus aureus CMX 553 (code FF),3.1 µg/mL
same,MIC,Staphylococcus aureus CMX 642A (code DD),3.1 µg/mL
same,MIC,Staphylococcus aureus NCTC10649M (code EE),1.56 µg/mL
same,MIC,Staphylococcus epidermidis 3519 (code HH),6.2 µg/mL
same,MIC,Streptococcus agalactiae CMX 508 (code KK),1.56 µg/mL
same,MIC,Streptococcus bovis A-5169 (code JJ),3.1 µg/mL
same,MIC,Streptococcus pyogenes 930 (code MM),> 100 µg/mL
same,MIC,Streptococcus pyogenes EES61 (code LL),3.1 µg/mL
same,MIC,Streptococcus pyogenes PIU 2548 (code NN),3.1 µg/mL
"CC[C@H]1OC(=O)[C@H](C)C(=O)[C@H](C)[C@@H](O[C@@H]2O[C@H](C)C[C@H](N(C)C)[C@H]2O)[C@@](C)(OCC=Cc2cnc3ccccc3c2)C[C@@H](C)C(=O)[C@H](C)[C@H]2N(N)C(=O)O[C@]12C [Example 263, Compound of Formula (IX): L is CO, T is N(NH2), R is —CH2CH═CH-(3-quinolyl)]",MIC,organism code AA,0.1 µg/mL
same,MIC,organism code BB,0.1 µg/mL
same,MIC,organism code CC,> 100 µg/mL
same,MIC,organism code DD,0.1 µg/mL
same,MIC,organism code EE,0.1 µg/mL
same,MIC,organism code FF,0.05 µg/mL
same,MIC,organism code GG,> 100 µg/mL
same,MIC,organism code HH,0.1 µg/mL
same,MIC,organism code II,0.01 µg/mL
same,MIC,organism code JJ,0.01 µg/mL
same,MIC,organism code KK,0.02 µg/mL
same,MIC,organism code LL,0.02 µg/mL
same,MIC,organism code MM,50 µg/mL
same,MIC,organism code NN,0.2 µg/mL
same,MIC,organism code OO,0.02 µg/mL
same,MIC,organism code PP,0.2 µg/mL
same,MIC,organism code QQ,> 100 µg/mL
same,MIC,organism code RR,0.78 µg/mL
same,MIC,organism code SS,> 100 µg/mL
same,MIC,organism code TT,> 100 µg/mL
same,MIC,organism code UU,0.78 µg/mL
same,MIC,organism code VV,0.2 µg/mL
same,MIC,organism code WW,4 µg/mL
same,MIC,organism code XX,0.015 µg/mL
same,MIC,organism code YY,0.015 µg/mL
same,MIC,organism code ZZ,> 128 µg/mL
same,MIC,organism code ZZA,0.25 µg/mL
"CC[C@H]1OC(=O)[C@H](C)C(=O)[C@H](C)[C@@H](O[C@@H]2O[C@H](C)C[C@H](N(C)C)[C@H]2O)[C@@](C)(OCC=Cc2ccc3ncc(Br)cc3c2)C[C@@H](C)C(=O)[C@H](C)[C@H]2NC(=O)O[C@@]21C [Example 219, R is —CH2CH═CH-(3-bromo-6-quinolyl)]",MIC,organism code AA,0.2 µg/mL
same,MIC,organism code BB,0.2 µg/mL
same,MIC,organism code CC,100 µg/mL
same,MIC,organism code DD,0.2 µg/mL
same,MIC,organism code EE,0.2 µg/mL
same,MIC,organism code FF,0.2 µg/mL
same,MIC,organism code GG,100 µg/mL
same,MIC,organism code HH,0.2 µg/mL
same,MIC,organism code II,0.05 µg/mL
same,MIC,organism code JJ,≤ 0.005 µg/mL
same,MIC,organism code KK,0.02 µg/mL
same,MIC,organism code LL,0.02 µg/mL
same,MIC,organism code MM,3.1 µg/mL
same,MIC,organism code NN,0.2 µg/mL
same,MIC,organism code OO,0.05 µg/mL
same,MIC,organism code PP,0.2 µg/mL
same,MIC,organism code QQ,100 µg/mL
same,MIC,organism code RR,0.78 µg/mL
same,MIC,organism code SS,> 100 µg/mL
same,MIC,organism code TT,> 100 µg/mL
same,MIC,organism code UU,0.39 µg/mL
same,MIC,organism code VV,0.05 µg/mL
same,MIC,organism code WW,2 µg/mL
same,MIC,organism code XX,0.03 µg/mL
same,MIC,organism code YY,0.03 µg/mL
same,MIC,organism code ZZ,2 µg/mL
same,MIC,organism code ZZA,0.25 µg/mL
"CC[C@H]1OC(=O)[C@H](C)C(=O)[C@H](C)[C@@H](O[C@@H]2O[C@H](C)C[C@H](N(C)C)[C@H]2O)[C@@](C)(OCC=NNC(=O)c2ccccc2)C[C@@H](C)C(=O)[C@H](C)[C@H]2NC(=O)O[C@@]21C [Example 241, Compound of Formula (IX): L is CO, T is NH, R is —CH2CH═NNHC(O)phenyl]",MIC,organism code AA,3.1 µg/mL
same,MIC,organism code CC,> 100 µg/mL
same,MIC,organism code DD,6.2 µg/mL
same,MIC,organism code EE,6.2 µg/mL
same,MIC,organism code FF,6.2 µg/mL
same,MIC,organism code GG,> 100 µg/mL
same,MIC,organism code HH,6.2 µg/mL
same,MIC,organism code II,1.56 µg/mL
same,MIC,organism code JJ,0.39 µg/mL
same,MIC,organism code KK,1.56 µg/mL
same,MIC,organism code LL,0.78 µg/mL
same,MIC,organism code MM,> 100 µg/mL
same,MIC,organism code NN,6.2 µg/mL
same,MIC,organism code OO,0.78 µg/mL
same,MIC,organism code PP,3.1 µg/mL
same,MIC,organism code QQ,> 100 µg/mL
same,MIC,organism code RR,1.56 µg/mL
same,MIC,organism code SS,> 100 µg/mL
same,MIC,organism code TT,> 100 µg/mL
same,MIC,organism code UU,100 µg/mL
same,MIC,organism code VV,6.2 µg/mL
same,MIC,organism code WW,16 µg/mL
same,MIC,organism code XX,0.5 µg/mL
same,MIC,organism code YY,0.25 µg/mL
same,MIC,organism code ZZ,> 128 µg/mL
same,MIC,organism code ZZA,4 µg/mL
